Our source for the T/C values is PubChem BioAssay AID256 (DTP/NCI, 2004).

The test system of this experiment is CD2F1 mice, L1210 leukemia ip, survival T/C. The experiment is described as follows: NCI In Vivo Anticancer Drug Screen. Data for tumor model L1210 Leukemia (intraperitoneal) in CD2F1 (CDF1) mice. The conditions noted are these: endpoint: mean survival time, higher = longer survival. In outline:
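Tumor-bearing mice (transplanted tumor) were split into treated and vehicle control groups, and the measured endpoint of each treated group was divided by that of its vehicle controls.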

Where [1] appears, read: dose: 400.0 mg/kg/injection, schedule: Q01DX009 (ip), vehicle: saline with Tween-80.
Setting [2] is: dose: 75.0 mg/kg/injection, schedule: Q01DX001 (ip), vehicle: other.
Setting [3] is: dose: 150.0 mg/kg/injection, schedule: Q01DX001 (ip), vehicle: other.
Where [4] appears, read: dose: 300.0 mg/kg/injection, schedule: Q01DX001 (ip), vehicle: other.
Setting [5] is: dose: 100.0 mg/kg/injection, schedule: Q01DX009 (ip), vehicle: saline with Tween-80.
The mark [6] stands for this setting: dose: 200.0 mg/kg/injection, schedule: Q01DX009 (ip), vehicle: saline with Tween-80.
Where [7] appears, read: dose: 50.0 mg/kg/injection, schedule: Q01DX009 (ip), vehicle: Klucel (hydroxypropylcellulose) (HPC).
Where [8] appears, read: dose: 100.0 mg/kg/injection, schedule: Q01DX009 (ip), vehicle: Klucel (hydroxypropylcellulose) (HPC).
[9] abbreviates: dose: 200.0 mg/kg/injection, schedule: Q01DX009 (ip), vehicle: Klucel (hydroxypropylcellulose) (HPC).
Setting [10] is: dose: 100.0 mg/kg/injection, schedule: Q04DX003 (ip), vehicle: saline with Tween-80.
The mark [11] stands for this setting: dose: 200.0 mg/kg/injection, schedule: Q04DX003 (ip), vehicle: saline with Tween-80.
Setting [12] is: dose: 400.0 mg/kg/injection, schedule: Q04DX003 (ip), vehicle: saline with Tween-80.
Setting [13] is: dose: 12.5 mg/kg/injection, schedule: Q01DX009 (ip), vehicle: saline.
Setting [14] is: dose: 25.0 mg/kg/injection, schedule: Q01DX009 (ip), vehicle: saline.
The mark [15] stands for this setting: dose: 50.0 mg/kg/injection, schedule: Q01DX009 (ip), vehicle: saline.

Molecules are shown by their SMILES. Where “and” joins values, the source holds several entries; their conditions need not be identical. Identical values can stand only once. Inconclusive results and toxic doses are left out.

Turning to `Nc1ncnc2c1ccn2C1OC2COP(=O)(O)OC2C1O` (centres undefined), the T/C is 98 % of control (dose: 5.0 mg/kg/injection, schedule: Q01DX001 (ip), vehicle: saline); 102 % of control (dose: 10.0 mg/kg/injection, schedule: Q01DX001 (ip), vehicle: saline); 114 % of control (dose: 20.0 mg/kg/injection, schedule: Q01DX001 (ip), vehicle: saline); 117 % of control (dose: 40.0 mg/kg/injection, schedule: Q01DX001 (ip), vehicle: saline).

As for `CC(C)=NNC(=O)CC(=O)NN=C(C)C`, the T/C is 100 % of control (dose: 100.0 mg/kg/injection, schedule: Q01DX009 (ip), vehicle: saline sonified); 100 % of control (dose: 180.0 mg/kg/injection, schedule: Q01DX009 (ip), vehicle: saline with Tween-80); 102 % of control (dose: 200.0 mg/kg/injection, schedule: Q01DX009 (ip), vehicle: saline sonified); 100 % of control (dose: 266.0 mg/kg/injection, schedule: Q01DX009 (ip), vehicle: saline with Tween-80); 110 % of control under setting [1]; 122 % of control (dose: 600.0 mg/kg/injection, schedule: Q01DX009 (ip), vehicle: saline with Tween-80).

In the case of `Cc1ccc(C(=O)C(=O)c2ccc(C)cc2C)c(C)c1`, the T/C is, setting by setting: under setting [2], 94 % of control; under setting [3], 87 % of control; under setting [4], 94 % of control.

Consider `O=C(N/N=C/c1ccc([N+](=O)[O-])o1)c1ccccc1N=Cc1ccc([N+](=O)[O-])o1`, for which the T/C is, setting by setting: under setting [5], 96 % of control; under setting [6], 98 % of control; under setting [1], 104 % of control.

With `Cc1cc(N2CCN(C)CC2)n2nc(-c3ccc(Cl)cc3)nc2n1`, the T/C is 120 % of control (dose: 50.0 mg/kg/injection, schedule: Q01DX001 (ip), vehicle: Klucel (hydroxypropylcellulose) (HPC)); 100 % of control under setting [7]; 95 % of control (dose: 100.0 mg/kg/injection, schedule: Q01DX001 (ip), vehicle: Klucel (hydroxypropylcellulose) (HPC)); 99 % of control under setting [8]; 93 % of control (dose: 200.0 mg/kg/injection, schedule: Q01DX001 (ip), vehicle: Klucel (hydroxypropylcellulose) (HPC)); 97 % of control under setting [9].

`CN(/N=C/c1ccccc1)C(=N)N`: the T/C (dose: 15.62 mg/kg/injection, schedule: Q04DX003 (ip), vehicle: saline) is 101 % of control; the T/C (dose: 31.25 mg/kg/injection, schedule: Q04DX003 (ip), vehicle: saline) was 107 % of control; the T/C (dose: 62.5 mg/kg/injection, schedule: Q04DX003 (ip), vehicle: saline) was 103 % of control.

As for `Cc1ccc(-c2c(O)c(Br)c(-c3ccc(C)cc3C)c(O)c2Br)c(C)c1`, the T/C was 97 % of control under setting [5]; 93 % of control under setting [10]; 97 % of control under setting [6]; 90 % of control under setting [11]; 94 % of control under setting [1]; 92 % of control under setting [12].

`CN(C)N=Nc1c(-c2cccs2)n[nH]c1C(F)(F)F`: the T/C is, setting by setting: under setting [2], 103 % of control; under setting [3], 103 % of control; under setting [4], 105 % of control.

In the case of `c1ccc(Sc2ccc3ccccc3c2)cc1`, the T/C is 98 % of control under setting [10], 101 % of control under setting [11] and 91 % of control under setting [12].

As for `CC(C)(CO)COC(=O)NC1=C(N2CC2)C(=O)C(NC(=O)OCC(C)(C)CO)=C(N2CC2)C1=O`, the T/C is, setting by setting: (dose: 0.75 mg/kg/injection, schedule: Q01DX009 (ip), vehicle: water) 119 % of control and 121 % of control; (dose: 1.5 mg/kg/injection, schedule: Q01DX009 (ip), vehicle: water) 122 % of control and 106 % of control; (dose: 12.0 mg/kg/injection, schedule: Q01DX009 (ip), vehicle: water) 166 % of control and 169 % of control.

With `O=C(O)c1c2c(nc3ccccc13)-c1ccccc1C1(CCCC1)C2`, the T/C runs as follows: under setting [10], 92 % of control; under setting [11], 99 % of control.

Consider `S=C1CCNCC1`, for which the T/C is 98 % of control under setting [13]; 100 % of control (dose: 12.5 mg/kg/injection, schedule: Q04DX003 (ip), vehicle: saline); 103 % of control under setting [14]; 96 % of control (dose: 25.0 mg/kg/injection, schedule: Q04DX003 (ip), vehicle: saline); 104 % of control under setting [15]; 87 % of control (dose: 50.0 mg/kg/injection, schedule: Q04DX003 (ip), vehicle: saline).

For the compound `O=c1cc(-c2ccccc2)ss1`, the T/C by setting is: (dose: 100.0 mg/kg/injection, schedule: Q04DX003 (ip), vehicle: Klucel (hydroxypropylcellulose) (HPC)) 104 % of control; (dose: 200.0 mg/kg/injection, schedule: Q04DX003 (ip), vehicle: Klucel (hydroxypropylcellulose) (HPC)) 100 % of control; (dose: 400.0 mg/kg/injection, schedule: Q04DX003 (ip), vehicle: Klucel (hydroxypropylcellulose) (HPC)) 105 % of control.

Turning to `CC(=O)C1CCC2C3CC=C4CC(SC(=N)N)CCC4(C)C3CCC12C` (centres undefined), the T/C (dose: 75.0 mg/kg/injection, schedule: Q01DX001 (ip), vehicle: steriod suspending solution) was 102 % of control; the T/C (dose: 150.0 mg/kg/injection, schedule: Q01DX001 (ip), vehicle: steriod suspending solution) is 104 % of control; the T/C (dose: 300.0 mg/kg/injection, schedule: Q01DX001 (ip), vehicle: steriod suspending solution) was 91 % of control.

Take `c1cc[c]([Sb]([c]2ccccc2)[c]2ccccc2)cc1`: the T/C reads like this: (dose: 20.0 mg/kg/injection, schedule: Q04DX003 (ip), vehicle: saline sonified) 97 % of control; (dose: 40.0 mg/kg/injection, schedule: Q04DX003 (ip), vehicle: saline sonified) 94 % of control.

Take `O=C(Nc1ccc(Cl)c(Cl)c1)OCC#CCOC(=O)Nc1ccc(Cl)c(Cl)c1`: the T/C is 95 % of control (dose: 100.0 mg/kg/injection, schedule: Q04DX003 (ip), vehicle: saline); 95 % of control (dose: 200.0 mg/kg/injection, schedule: Q04DX003 (ip), vehicle: saline); 91 % of control (dose: 400.0 mg/kg/injection, schedule: Q04DX003 (ip), vehicle: saline).

Take `O=C(CCc1ccc(O)cc1)ON1C(=O)CCC1=O`: under setting [7], the T/C was 105 % of control.

`Cc1ccccc1N(CC1CO1)CC1CO1` (centres undefined): the T/C is, setting by setting: under setting [13], 115 % of control and 104 % of control; under setting [14], 98 % of control and 106 % of control; under setting [15], 100 % of control and 111 % of control; (dose: 100.0 mg/kg/injection, schedule: Q01DX009 (ip), vehicle: saline) 100 % of control and 106 % of control; (dose: 200.0 mg/kg/injection, schedule: Q01DX009 (ip), vehicle: saline) 101 % of control and 108 % of control; (dose: 400.0 mg/kg/injection, schedule: Q01DX009 (ip), vehicle: saline) 100 % of control and 106 % of control.

As to `COC(=O)Nc1nc2ccc(C(=O)c3ccccc3)cc2[nH]1`, the T/C by setting is: (dose: 2.0 mg/kg/injection, schedule: Q04DX003 (ip), vehicle: saline with Tween-80) 94 % of control; (dose: 4.0 mg/kg/injection, schedule: Q04DX003 (ip), vehicle: saline with Tween-80) 94 % of control; (dose: 8.0 mg/kg/injection, schedule: Q04DX003 (ip), vehicle: saline with Tween-80) 91 % of control; (dose: 16.0 mg/kg/injection, schedule: Q04DX003 (ip), vehicle: saline with Tween-80) 100 % of control and 112 % of control.

Take `Nc1nc(=S)c2ncn(C3CC(O)C(CO)C3)c2[nH]1` (centres undefined): the T/C under setting [7] is 94 % of control, the T/C under setting [8] was 91 % of control and the T/C under setting [9] is 108 % of control.

Take `c1ccc2c(c1)Oc1ccccc1C2C1c2ccccc2Oc2ccccc21`: the T/C is, setting by setting: under setting [10], 100 % of control; under setting [11], 100 % of control; under setting [12], 116 % of control.

Take `CCOP(OCC)SSCn1nc2ccc3ccccc3n2c1=O`: the T/C is, setting by setting: (dose: 12.5 mg/kg/injection, schedule: Q01DX009 (ip), vehicle: Klucel (hydroxypropylcellulose) (HPC)) 100 % of control; (dose: 25.5 mg/kg/injection, schedule: Q01DX009 (ip), vehicle: Klucel (hydroxypropylcellulose) (HPC)) 95 % of control; under setting [7], 113 % of control.
